Reference: patent US20230087118A1, “IMIDAZO[1,2-a][sequence] DERIVATIVES AND THEIR USE IN THE TREATMENT OF DISEASE” (priority 2019, published 2023)

target: T1, IRAK4 (Homo sapiens, UniProt Q9NWZ3); assay: biochemical; conditions: not given
T1 sequence (Q9NWZ3 1-460): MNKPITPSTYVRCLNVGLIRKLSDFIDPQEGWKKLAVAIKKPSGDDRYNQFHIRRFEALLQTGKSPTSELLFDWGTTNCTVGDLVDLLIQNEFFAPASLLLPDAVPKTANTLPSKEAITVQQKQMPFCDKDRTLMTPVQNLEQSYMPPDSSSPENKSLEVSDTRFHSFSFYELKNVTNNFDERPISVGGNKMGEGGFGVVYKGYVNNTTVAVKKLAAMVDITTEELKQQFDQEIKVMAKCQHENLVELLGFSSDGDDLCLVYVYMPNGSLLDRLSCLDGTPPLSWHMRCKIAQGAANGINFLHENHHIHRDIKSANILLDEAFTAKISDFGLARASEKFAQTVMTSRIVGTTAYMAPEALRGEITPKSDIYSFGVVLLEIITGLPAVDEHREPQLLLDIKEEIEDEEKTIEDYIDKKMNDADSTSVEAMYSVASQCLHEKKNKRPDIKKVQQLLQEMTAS

Row | IC50 [µM] | SMILES
1 | 0.0092 | COc1cc2nc(C3CCOCC3)cn2cc1C(=O)Nc1cccn2nccc12 [Example 479, 7-Methoxy-N-(pyrazolo[1,5-a]pyridin-4-yl)-2-(tetrahydro-2H-pyran-4-yl)imidazo[1,2-a]pyridine-6-carboxamide]
2 | 0.0075 | CCn1cccc(NC(=O)c2cn3cc(C4CC4)nc3cc2OC(C)C)c1=O [Example 480, 2-Cyclopropyl-N-(1-ethyl-2-oxo-1,2-dihydropyridin-3-yl)-7-isopropoxyimidazo[1,2-a]pyridine-6-carboxamide]
3 | 0.0089 | CCOc1cccc(NC(=O)c2cn3cc(C4CC4)nc3cc2OC(C)C)n1 [Example 481, 2-Cyclopropyl-N-(6-ethoxypyridin-2-yl)-7-isopropoxyimidazo[1,2-a]pyridine-6-carboxamide]
4 | 0.0067 | CC(C)Oc1cc2nc(C3CC3)cn2cc1C(=O)Nc1cccc(OCC(F)F)n1 [Example 482, 2-Cyclopropyl-N-(6-(2,2-difluoroethoxy)pyridin-2-yl)-7-isopropoxyimidazo[1,2-a]pyridine-6-carboxamide]
5 | 0.009 | CC(C)Oc1cc2nc(C3CC3)cn2cc1C(=O)Nc1cccc(CO)n1 [Example 483, 2-Cyclopropyl-N-(6-(hydroxymethyl)pyridin-2-yl)-7-isopropoxyimidazo[1,2-a]pyridine-6-carboxamide]
6 | 0.0073 | CCOc1nc(C(=O)Nc2cc(F)ccc2OC)cn2cc(C34COC(C)(C3)C4)nc12 [Example 484, 8-Ethoxy-N-(5-fluoro-2-methoxyphenyl)-2-(1-methyl-2-oxabicyclo[2.1.1]hexan-4-yl)imidazo[1,2-a]pyrazine-6-carboxamide]
7 | 0.009 | CCOc1nc(C(=O)Nc2cccc(F)c2Cl)cn2cc(C34COC(C)(C3)C4)nc12 [Example 485, N-(2-chloro-3-fluorophenyl)-8-ethoxy-2-(1-methyl-2-oxabicyclo[2.1.1]hexan-4-yl)imidazo[1,2-a]pyrazine-6-carboxamide]
8 | 0.0075 | CCOc1nc(C(=O)Nc2cccc(OC)n2)cn2cc(C34COC(C)(C3)C4)nc12 [Example 486, 8-Ethoxy-N-(6-methoxypyridin-2-yl)-2-(1-methyl-2-oxabicyclo[2.1.1]hexan-4-yl)imidazo[1,2-a]pyrazine-6-carboxamide]
9 | 0.0027 | CCOc1nc(C(=O)Nc2cccc(F)c2OC)cn2cc(C34COC(C)(C3)C4)nc12 [Example 487, 8-Ethoxy-N-(3-fluoro-2-methoxyphenyl)-2-(1-methyl-2-oxabicyclo[2.1.1]hexan-4-yl)imidazo[1,2-a]pyrazine-6-carboxamide]
10 | 0.0081 | CCOc1nc(C(=O)Nc2cccc(Cl)c2F)cn2cc(C34COC(C)(C3)C4)nc12 [Example 488, N-(3-chloro-2-fluorophenyl)-8-ethoxy-2-(1-methyl-2-oxabicyclo[2.1.1]hexan-4-yl)imidazo[1,2-a]pyrazine-6-carboxamide]
11 | 0.0031 | CCOc1nc(C(=O)Nc2cccc3ccnn23)cn2cc(C34COC(C)(C3)C4)nc12 [Example 489, 8-Ethoxy-2-(1-methyl-2-oxabicyclo[2.1.1]hexan-4-yl)-N-(pyrazolo[1,5-a]pyridin-7-yl)imidazo[1,2-a]pyrazine-6-carboxamide]
12 | 0.0065 | CCOc1nc(C(=O)Nc2ccn(C(F)F)n2)cn2cc(C34COC(C)(C3)C4)nc12 [Example 490, N-(1-(difluoromethyl)-1H-pyrazol-3-yl)-8-ethoxy-2-(1-methyl-2-oxabicyclo[2.1.1]hexan-4-yl)imidazo[1,2-a]pyrazine-6-carboxamide]
13 | 0.0023 | CCOc1nc(C(=O)Nc2ccc(F)cc2OC)cn2cc(C34COC(C)(C3)C4)nc12 [Example 491, 8-Ethoxy-N-(4-fluoro-2-methoxyphenyl)-2-(1-methyl-2-oxabicyclo[2.1.1]hexan-4-yl)imidazo[1,2-a]pyrazine-6-carboxamide]
14 | 0.0016 | CCOc1nc(C(=O)Nc2cccnc2OC(F)F)cn2cc(C34COC(C)(C3)C4)nc12 [Example 492, N-(2-(difluoromethoxy)pyridin-3-yl)-8-ethoxy-2-(1-methyl-2-oxabicyclo[2.1.1]hexan-4-yl)imidazo[1,2-a]pyrazine-6-carboxamide]
15 | 0.0032 | CCOc1nc(C(=O)Nc2cccc(C3CC3)n2)cn2cc(C34COC(C)(C3)C4)nc12 [Example 493, N-(6-cyclopropylpyridin-2-yl)-8-ethoxy-2-(1-methyl-2-oxabicyclo[2.1.1]hexan-4-yl)imidazo[1,2-a]pyrazine-6-carboxamide]
16 | 0.0039 | CCOc1nc(C(=O)Nc2cccc(C(F)F)c2)cn2cc(C34COC(C)(C3)C4)nc12 [Example 494, N-(3-(difluoromethyl)phenyl)-8-ethoxy-2-(1-methyl-2-oxabicyclo[2.1.1]hexan-4-yl)imidazo[1,2-a]pyrazine-6-carboxamide]
17 | 0.0088 | CCOc1nc(C(=O)Nc2cccc(Cl)c2)cn2cc(C34COC(C)(C3)C4)nc12 [Example 495, N-(3-chlorophenyl)-8-ethoxy-2-(1-methyl-2-oxabicyclo[2.1.1]hexan-4-yl)imidazo[1,2-a]pyrazine-6-carboxamide]
18 | 0.0047 | CCOc1nc(C(=O)Nc2cccc(C)c2F)cn2cc(C34COC(C)(C3)C4)nc12 [Example 496, 8-Ethoxy-N-(2-fluoro-3-methylphenyl)-2-(1-methyl-2-oxabicyclo[2.1.1]hexan-4-yl)imidazo[1,2-a]pyrazine-6-carboxamide]
19 | 0.007 | CCOc1nc(C(=O)Nc2cccc(C(F)(F)F)c2)cn2cc(C34COC(C)(C3)C4)nc12 [Example 497, 8-Ethoxy-2-(1-methyl-2-oxabicyclo[2.1.1]hexan-4-yl)-N-(3-(trifluoromethyl)phenyl)imidazo[1,2-a]pyrazine-6-carboxamide]
20 | 0.0043 | CCOc1nc(C(=O)Nc2cnn3cc(C)cnc23)cn2cc(C34COC(C)(C3)C4)nc12 [Example 498, 8-Ethoxy-2-(1-methyl-2-oxabicyclo[2.1.1]hexan-4-yl)-N-(6-methylpyrazolo[1,5-a]pyrimidin-3-yl)imidazo[1,2-a]pyrazine-6-carboxamide]
21 | 0.0017 | CCOc1nc(C(=O)Nc2cccnc2OC(C)C)cn2cc(C34COC(C)(C3)C4)nc12 [Example 499, 8-Ethoxy-N-(2-isopropoxypyridin-3-yl)-2-(1-methyl-2-oxabicyclo[2.1.1]hexan-4-yl)imidazo[1,2-a]pyrazine-6-carboxamide]
22 | 0.0021 | CCOc1nc(C(=O)Nc2cccn(C)c2=O)cn2cc(C34COC(C)(C3)C4)nc12 [Example 500, 8-Ethoxy-N-(1-methyl-2-oxo-1,2-dihydropyridin-3-yl)-2-(1-methyl-2-oxabicyclo[2.1.1]hexan-4-yl)imidazo[1,2-a]pyrazine-6-carboxamide]
23 | 0.0069 | CCOc1nc(C(=O)Nc2ccn(CC)n2)cn2cc(C34COC(C)(C3)C4)nc12 [Example 501, 8-Ethoxy-N-(1-ethyl-1H-pyrazol-3-yl)-2-(1-methyl-2-oxabicyclo[2.1.1]hexan-4-yl)imidazo[1,2-a]pyrazine-6-carboxamide]
24 | 0.0004 | CC(C)Oc1cc2nc(C34CCC(C)(C3)OC4)cn2cc1C(=O)Nc1cccc(C(F)(F)F)c1F (stereo not shown) [Example 502, N-(2-fluoro-3-(trifluoromethyl)phenyl)-7-isopropoxy-2-(1-methyl-2-oxabicyclo[2.2.1]heptan-4-yl)imidazo[1,2-a]pyridine-6-carboxamide]

Row | SMILES | IC50 [µM]
25 | CC1(C)CC(Oc2cc3nc(C4CC4)cn3cc2C(=O)Nc2cccc(C(F)F)n2)C1 [Example 472, 2-Cyclopropyl-N-(6-(difluoromethyl)pyridin-2-yl)-7-(3,3-dimethylcyclobutoxy)imidazo[1,2-a]pyridine-6-carboxamide] | 0.0064
26 | O=C(Nc1cccc(C(F)F)n1)c1cn2cc(C3CC3)nc2cc1OC1CCC1 [Example 474, 7-Cyclobutoxy-2-cyclopropyl-N-(6-(difluoromethyl)pyridin-2-yl)imidazo[1,2-a]pyridine-6-carboxamide] | 0.0007

same assay, conditions: IRAK4 Biochemical Assay (1 mM ATP, 2 h) IC50 (μM), 1 mM ATP, 2 h, 100 pM IRAK4

Row | IC50 [µM] | SMILES
27 | 0.0064 | O=C(Nc1cccc(C(F)F)n1)c1cn2cc(C3CC3)nc2cc1OC1CCOCC1 [Example 473, 2-Cyclopropyl-N-(6-(difluoromethyl)pyridin-2-yl)-7-((tetrahydro-2H-pyran-4-yl)oxy)imidazo[1,2-a]pyridine-6-carboxamide]
28 | 0.0088 | CC1(COc2cc3nc(C4CC4)cn3cc2C(=O)Nc2cccc(C(F)F)n2)CCOC1 (stereo not shown) [Example 475, 2-Cyclopropyl-N-(6-(difluoromethyl)pyridin-2-yl)-7-((3-methyltetrahydrofuran-3-yl)methoxy)imidazo[1,2-a]pyridine-6-carboxamide]
29 | 0.0055 | COc1cccc(NC(=O)c2cn3cc(C4CC4)nc3cc2OCC2CC3CCC2O3)n1 (stereo not shown) [Example 478, 7-((7-Oxabicyclo[2.2.1]heptan-2-yl)methoxy)-2-cyclopropyl-N-(6-methoxypyridin-2-yl)imidazo[1,2-a]pyridine-6-carboxamide]

Row | SMILES | IC50 [µM]
30 | O=C(Nc1cccc(C(F)F)n1)c1cn2cc(C3CC3)nc2cc1OC1CC(F)(F)C1 [Example 476, 2-Cyclopropyl-7-(3,3-difluorocyclobutoxy)-N-(6-(difluoromethyl)pyridin-2-yl)imidazo[1,2-a]pyridine-6-carboxamide] | 0.0088
31 | O=C(Nc1cccc(C(F)F)n1)c1cn2cc(C3CC3)nc2cc1OC1CC(C(F)F)C1 (stereo not shown) [Example 477, 2-Cyclopropyl-7-(3-(difluoromethyl)cyclobutoxy)-N-(6-(difluoromethyl)pyridin-2-yl)imidazo[1,2-a]pyridine-6-carboxamide] | 0.0011
